# Tests used:
# Format in all cases: in vivo, mice
# [1] = test system: endometriotic lesions (experimental endometriosis); assay: Lesion size, weight and histology at end of intervention; settings: after 4 weeks i.p. once per day
# Text: (§1) In this study, endometrial tissues from eight-week-old female CMV-Luc mice (n=15) were acquired for transplantation into nonluminescent NOD-SCID mice (n=32). The mouse endometrium was obtained during the proliferating estrous stage, and biopsies 2 mm in diameter were obtained with a sterile dermal biopsy punch (Miltex, NY). The biopsies were immediately washed in prewarmed, phenol-red-free DMEM/F-12 medium (Sigma) to remove residual blood and mucus, and the samples were maintained in serum-free DMEM/F-12 medium before transplantation (Bruner-Tran K L, et al. J Clin Endocrinol Metab 2009; 94:2489-94). Cultured endometrial biopsies were randomly allocated for transplantation.
# (§2) Five mouse endometrial biopsies per treatment group were implanted into a single subcutaneous pocket created is the abdominal wall of the mice along the ventral midline immediately below the umbilicus. All of the surgical procedures were performed under general anesthesia with isoflurane (Baxter, IL), and the mice were monitored until they fully recovered.
# At the end of intervention, size of the endometriotic lesions was determined as the longest length and perpendicular width according to a venire caliper and was calculated as 0.52×width^2×length in mm^3. The endometrial implants, together with subcutaneous and muscle layers, were removed from the abdomen wall for detailed histological examination and specific staining analysis.
# (§3) Paraffin sections (n=4 per group) were prepared for standard hematoxylin and eosin (H&E) staining, angiogenesis immunostaining and TUNEL staining as previously described (Xu H, et al. Hum Reprod 2009; 24:608-18.). Immunohistochemistry staining of in situ angiogenesis was performed by the immunoperoxidase method using a MACH 3 HRP Polymer Kit (Biocare Medical, Concord), and counterstained using methyl green or blue solution.
# [2] = test system: vascular endothelial growth factor (VEGF); assay: VEGF concentrations in plasma and lesions by ELISA
# Text: (§4) Pharmacokinetics of EGCG and pro-EGCG in the animals were studied by measuring the corresponding EGCG and pro-EGCG concentrations (EGCG in the EGCG group, pro-EGCG in the pro-EGCG group) in plasma during the intervention and also in lesions at the end of intervention. EGCG and pro-EGCG were quantified by analytical methods as previously described (Lam W H, et al. Bioorg Med Chem. 2004; 510:69-93; Chu K O, et al. J Chromat B 2004; 810:187-95; Chu K O, et al. Anal Chim Acta 2004; 510:69-76). Anti-oxidative and anti-angiogenesis capacities of the samples were also studied by measuring oxygen radical absorbance capacity (ORAC) using a modified phycoerythrin fluorescence decay assay as previously described (Wang C C, et al. Clin Chem 2004; 50:952-4), and vascular endothelial growth factor (VEGF) concentrations were measured using a commercial ELISA kit (Uscn Life Science Inc., TX) according to the manufacturer's manual. Blood samples (n=8 per group) were collected from the tail vein once per week, and plasma was prepared by immediate centrifugation. Implants without subcutaneous and muscle layers (n=4 per group) were removed from the abdominal wall, and the endometriotic lesions were frozen. All of the samples were kept in −80° C. prior to analysis.
# [3] = test system: endometriotic lesions (experimental endometriosis); assay: Growth of luminescent endometriotic lesions monitored weekly by IVIS bioluminescence imaging
# Text: Based on our previous study, an immune-compromised mouse model of experimental endometriosis was created by subcutaneous transplantation of human or mouse tissues to assess the anti-angiogenic effects and mechanisms of green tea catechin (Xu H, et al. Hum Reprod 2009; 24:608-18; Xu H, et al. Fertil Steril 2011; 96:1021-8).
# as §1, §2
# Development and angiogenesis of the experimental endometriosis were monitored using various in vivo imaging systems. During the intervention, growth of the endometriotic lesions (n=8 per group) was monitored each week by measuring the bioluminescence of the subcutaneous luciferase-positive implants using a non-invasive IVIS 200 live animal imaging system (Xenogen) as previously described (Song C, et al. Hum Gene Ther, 2011; 22:439-49). A total of 150 mg/kg of luciferin was injected intraperitoneally […] 10 mins prior to imaging. An image from each animal was captured at bin size 4 in triplicate, and the bioluminescence signal intensities were averaged for comparison.
# [4] = test system: apoptotic cells in the endometriotic lesions; assay: Apoptosis in endometriotic lesions by Cellvizio YO-PRO-1 imaging and TUNEL staining; settings: after 4 weeks
# Procedure: (§5) At the end of intervention, functional angiogenesis of the endometriotic lesions (n=8 per group) was monitored by measuring the flow of fluorescence dye in the new microvessels developed in the implants using a Cellvizio® LAB LSU-488 system with a ProFlex Microprobe S1500 (Mauna Kea Technologies, Paris) as previously described (Xu H, et al. Fertil Steril 2011; 96:1021-8.). A total of 10 mg/ml of FITC-Dextran was injected intravenously into each mouse prior to imaging. Total vessel length (μm) and area (μm^2) and functional capillary length (μm^−1) and area density were measured using Cellvizio® LAB Vessel Detection software, and averaged from 4 perpendicular regions of the lesions in replicates. At the same time, apoptotic cells in the lesions were captured by Cellvizio-LAB 488 with a ProFlex MiniO/100 microprobe using Cellvizio® LAB I/C Viewer software (Mauna Kea Technologies). A total of 10 μl of 10 μM YO-PRO®-1 iodide in DSMO was injected into the lesion area.
# The total number of apoptotic cells was counted and averaged from the 4 perpendicular regions of the lesions in replicates as described above. Both IVIS and Cellvizio imaging procedures were performed under general anesthesia with isoflurane (Baxter, Ill.), and the mice were observed until fully recovered.
# TUNEL labeling for in situ apoptotic cells was performed using an ApopTag Peroxidase In Situ Apoptosis Detection Kit (Temecula, Calif.) according to the manufacturer's instructions. The total numbers of TUNEL-positive stained cells were counted. The mean numbers of apoptotic cells were calculated from 5 separated sections from each animal within the treatment group and are presented as numbers per lesion as above. […] Each section was evaluated by both examiners, who were blinded to the experimental groups and results.
# [5] = Oxygen radical absorbance capacity (ORAC) in plasma and lesions
# Text: as §4
# [6] = test system: microvessels in the endometriotic lesions; assay: Angiogenesis of endometriotic lesions by Cellvizio, microCT and CD31/αSMA immunostaining; settings: after 4 weeks
# Procedure: as §5
# After live animal imaging, structural angiogenesis in the endometriotic lesions (n=4 per group) was further examined by detecting the Microfil in the new microvessels developed in the implants using a VivaCT 40 μCT system (Scanco Medical, Switzerland) as previously described (Sun M H, et al. J Orthop Res. 2012; 30:137-43.). The mice were sacrificed by cervical dislocation and where immediately perfused with 4% paraformaldehyde and Microfil MV-120 Blue. Three-dimensional microvessel architecture was constructed, and absolute and relative Microfil-filled microvessel volumes were determined using the built-in software.
# as §3
# Antibodies against mouse CD31 and alpha-smooth muscle actin (αSMA) (Abcam Inc., MA) were used to double fluorescence stain the microvessels developed in the endometriotic lesions, and CD34 (Abeam Inc.) was used to stain the microvessels in the ovaries and uterus. The samples without primary antibodies served as negative controls. The total number of positively stained new and old microvessels in the lesions was counted, respectively. The mean microvessel numbers and sizes were calculated from 5 separated sections from each animal within the treatment group and are presented as numbers per lesion and μm^2 per lesion, respectively.
# [7] = EGCG, pro-EGCG 50 mg/kg, vitamin E 20 mg/kg
substance,measurement,setting,value
vitamin E,lesion size compared to control group,[1]; [7],did not significantly decrease
same,lesion weight compared to control group,[1]; [7],did not significantly decrease
same,development and histology of the endometriotic lesions,[1]; microscopic examination,a large cyst-like endometrial gland structure was formed
same,VEGF concentrations in endometriotic lesions compared to saline group,[2]; lesions after intervention,not significantly different from the saline group
same,VEGF concentrations in plasma compared to saline group,[2]; plasma during intervention,not significantly different from the saline group
same,lesion bioluminescence intensity compared with saline group,"[3]; i.p. once per day, 4 weeks, EGCG, pro-EGCG 50 mg/kg, vitamin E 20 mg/kg",significantly lower than that of the saline group at the 3rd week
same,lesion growth (bioluminescence) at the 4th week compared with saline group,"[3]; vitamin E 20 mg/kg i.p. once per day, 4th week","returned to normal growth, as in the saline group"
same,total apoptotic cell numbers in the lesions compared to saline group,[4],but not vitamin E significantly increased
same,ORAC in endometriotic lesions compared to saline group,[5]; lesions after intervention,significantly increased
same,ORAC in plasma compared to saline group,[5]; plasma during intervention,significantly increased
same,"functional capillary length, density and area in the lesions compared to saline group","[6]; Cellvizio, FITC-Dextran","but not vitamin E, significantly inhibited"
same,total vessel length in the lesions compared to saline group,"[6]; Cellvizio, FITC-Dextran","but not vitamin E, significantly inhibited"
same,CD31-positively and αSMA-positively stained old microvessel numbers compared to saline group,[6]; immunostaining,"but not vitamin E, significantly inhibited"
same,vessel volume and density in the lesions compared to saline group,"[6]; microCT, Microfil","but not vitamin E, significantly inhibited"
